In US7229769B2, “Compositions and methods for detecting protease activity” (Illumina, Inc., priority 2005, dated 2007):
Residues, ends and D or L forms follow the SMILES beside them. *: point of attachment. Cbz = O=C(OCc1ccccc1)*; CH2F = FC*

Target: T1, Caspase-3 (Homo sapiens, UniProt P42574)
T1 sequence (P42574 29-175 limits assumed): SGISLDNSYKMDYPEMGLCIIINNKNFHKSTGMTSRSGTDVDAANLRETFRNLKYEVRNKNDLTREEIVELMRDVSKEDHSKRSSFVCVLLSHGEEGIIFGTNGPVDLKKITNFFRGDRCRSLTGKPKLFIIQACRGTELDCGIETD
T1 sequence (P42574 176-277 limits assumed): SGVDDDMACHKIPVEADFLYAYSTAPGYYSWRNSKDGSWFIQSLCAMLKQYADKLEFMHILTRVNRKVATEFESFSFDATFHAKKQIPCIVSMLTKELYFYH
Experiment: Caspase-3 protease assay with protein-DNA conjugate substrate, streptavidin extraction, BeadArray detection; inhibition analysis
Assay type: biochemical
Settings: end point assays, various concentrations of inhibitor vs. absence of inhibitor, FIG. 10
Method: Caspase-3 protease activity was carried out as follows. Briefly, the caspase-3 substrate included a protein moiety (peptide) having a caspase-3 amino acid recognition sequence. The protein moiety was attached at its amino terminus to a FAM-labeled DNA moiety and at its carboxy terminus to a biotin. The enzymatic reactions were performed in 30 to 60 microliter volumes having substrate concentrations in the range of 20 nM to 150 nM. The enzyme concentrations ranged from a few ng/ml to a few mg/ml. The assay buffer was 50 mM Tris-HCL, pH 8.0, 1 mM CaCl2, and 0.1% Tween-20 (v/v). The assay was carried out at 37° C. at varying times from 5 minutes to twelve hours.
Following incubation of the protease and substrate, the reaction mixture was extracted with streptavidin beads provided in molar excess for 15 minutes to remove uncleaved substrate (and cleaved protein fragments lacking the DNA moiety). Following removal of the streptavidin beads, the remaining mixture, containing FAM-labeled DNA fragments of the cleaved caspase-3 substrate, was diluted into GoldenGate™ hybridization buffer (Illumina, Inc., San Diego, Calif.) and hybridized onto a Sentrix® BeadArray Matrix for one hour at room temperature. The BeadArray matrix included nucleic acid probes that were complementary to the FAM-labeled DNA fragments. […]

COC(=O)C[C@H](NC(=O)[C@H](C)NC(=O)[C@@H](NC(=O)OCc1ccccc1)C(C)C)C(=O)CF [ZVAD-FMK] (Cbz-Val-Ala-Asp(OMe)-CH2F)
extent of inhibition of caspase-3 (mean signal intensity vs. time): as the concentration of inhibitor was increased the extent of inhibition was also increased
